Tests used:
IL-6 mRNA = IL-6 mRNA expression in chondrocytes by TaqMan assay; format: cell-based; settings: human chondrocytes stimulated with IL-1β, n=4
Procedure: (§1) Chondrocytes were derived by enzymatic digestion of human cartilage obtained from OA patients (n=14) undergoing knee joint replacement. Chondrocytes were stimulated with IL-1β (5 ng/ml) or treated with Actinomycin D (5 μg/ml) or NFκB inhibitor SC514 (75 μM) or JNK inhibitor (25 μM). Total RNA from grounded cartilage and from chondrocytes was purified using Qiagen RNeasy kit (Qiagen). Reverse transcription was performed using the Quantitect Reverse Transcription kit and the ZCCHC6 or IL-6 mRNA was quantified using TaqMan assays. SiRNA-mediated depletion of ZCCHC6 in human chondrocytes was used to study the effect on inflammatory cytokine expression using a cytokine array (Ray Biotech). Protein expression of IL-6 was studied using Western immunoblotting and quantified by ELISA in culture supernatants. Results were derived using Sigma Plot 12.3 package and p<0.05 was considered significant.

ZCCHC6 = ZCCHC6 expression in IL-1β-stimulated chondrocytes; format: cell-based; settings: human chondrocytes stimulated with IL-1β, n=4
Procedure: as §1

Substance: Interleukin-1β [IL-1β]
- increase in mRNA of IL-6 (IL-6 mRNA): 4956 fold
- increase in expression of ZCCHC6 (ZCCHC6): 11.3 fold
